The term solubility (thermodynamic) denotes the concentration in solution at equilibrium with solid. By CC50 is commonly meant the concentration that lowers cell viability or growth by half. The IC50 is the point on the concentration scale where inhibition reaches its midpoint.

Converted amounts (≈) assume the structure as drawn.

Here are results for 16 compounds from patent publication US20210309658A1, “ARYL COMPOUNDS FOR THE TREATMENT AND PROPHYLAXIS OF BACTERIAL INFECTION” (Hoffmann-La Roche Inc., priority 2018, published 2021).

A short description of series [1]: Lyophilisation Solubility Assay (LYSA). The format is physicochemical. The settings on record: aqueous buffer, thermodynamic from solid; 0.05 M phosphate buffer, pH 6.5; * = detection limit. The method, then: The solubility of compounds of present invention was assessed by LYSA assay. Samples were prepared in duplicate from 10 mM DMSO stock solutions (20 μL) diluted in 30 μL pure DMSO. After evaporation of DMSO with a centrifugal vacuum evaporator, the residue was dissolved in 0.05 M phosphate buffer (150 μL, pH 6.5), stirred for one hour and shook for two hours. After one night, the solution was filtered using a microtiter filter plate. Then the filtrate and its 1/10 dilution were analyzed by HPLC-UV. In addition a four-point calibration curve was prepared from the 10 mM stock solutions and used for the solubility determination of the compounds.

The nature of series [2]: Cytotoxicity assay (HepG2, CellTiter-Blue). The format is cell-based. The settings on record: human; HepG2 cells, 3 days treatment; * = detection limit. The method, then: The cytotoxicity of compounds of present invention was assessed by HepG2 assay. HepG2 cells (ATCC HB-8065™) were seeded into 96-well plates (1.2×10^4 cells per well) and treated with compounds for 3 days, cell viability was measured at day 3 post compound treatment using the CellTiter-Blue® Cell Viability Assay (Promega, Cat. No. G8082). 20 μL of Cell titer blue buffer were added to each well of the cells, incubated for 3 hours at 37° C., and the fluorescence value was measured by a plate reader (Molecular Device SpectraMax M2). The CC50 value of each compound is plotted with GraphPad Prism using four parameter logistic equation.
(Resazurin is reduced to fluorescent resorufin, in cell work by metabolically active cells.)

The subject of series [3] is K. pneumoniae (ATCC10031). The experiment in a line: 50% growth inhibitory concentration (IC50) determination assay, K. pneumoniae. The format is cell-based. The note with it: Klebsiella pneumoniae, ATCC10031; growth inhibition, Iso-Sensitest broth, OD 600 nm over 16 h; * = detection limit; read-out: IC50 (μM) K. pneumoniae ATCC10031. The protocol: (§1) The in vitro antimicrobial activity of the compounds against E. coli (BW25113, obtained from Coli Genetic Stock Center, #7636) and K. pneumoniae (ATCC10031) was determined according to the following procedure:
(§2) The assay used a 10-points Iso-Sensitest broth medium to measure quantitatively the in vitro activity of the compounds against E. coli BW25113 and K. pneumoniae ATCC 10031.
(§3) Stock compounds in DMSO were serially two-fold diluted (range from 50 to 0.097 μM final concentration) in 384 wells microtiter plates and inoculated with 49 μL the bacterial suspension in Iso-Sensitest broth medium to have a final cell concentration of ˜5×10^5 CFU/mL in a final volume/well of 50 μL/well. Microtiter plates were incubated at 35±2° C.
(§4) Bacterial cell growth was determined with the measurement of optical density at λ=600 nm each 20 minutes over a time course of 16 h.
(§5) Growth inhibition was calculated during the logarithmic growth of the bacterial cells with determination of the concentration inhibiting 50% (IC50) of the growth.

For series [4], the system named is E. coli (BW25113). The experiment in a line: 50% growth inhibitory concentration (IC50) determination assay, E. coli. The class given is cell-based. The settings on record: Escherichia coli, BW25113; growth inhibition, Iso-Sensitest broth, OD 600 nm over 16 h; read-out: IC50 (μM) E. coli K12 BW25113. The protocol: as §1, §2, §3, §4, §5
Series [5] concerns E. coli (ATCC 25922). The experiment in a line: Minimal Inhibitory Concentration (MIC) assay. The format is cell-based. The note with it: Escherichia coli, ATCC25922; CAMHB, 20 hours at 35° C.; read-out: MIC (μg/mL) E. coli ATCC 25922. The protocol:
The in vitro potency of compounds to inhibit E. coli (ATCC 25922) growth was assessed by MIC (Minimal Inhibitory Concentration) assay. Samples were prepared from 10 mM DMSO stock solutions. After serial 2-fold dilution in DMSO in a master plate (Greiner, Cat No: 651201), 180 μL sterile distilled water was added to 20 μL each aliquot of the samples. Then 10 μL diluted compounds were transferred into a new assay plate (Costar, 3599).
The growth medium […] Mueller Hinton Broth (CAMHB) was prepared by adding the 20 mg per liter CaCl2 and 20 mg per liter MgCl2 into the MHB medium (Jianglai Company, sterilized).
Vials of each of the test microorganisms were maintained frozen in the vapor phase of a liquid nitrogen freezer. Took out the bacteria E. coli ATCC 25922 (KWIKSTIK, 0335K) from liquid nitrogen freezer, thawed it in room temperature, and diluted the bacterial in the CAMHB medium to achieve a final inoculum of 5×10^5 CFU/mL, 90 μL CAMHB with bacteria was dispensed to the assay plate and pipetted 5 times.
Then the assay plates were incubated for 20 hours at 35° C. in ambient air. Following incubation, the MIC (μg/mL), the lowest concentration of drug that inhibits visible growth of the microorganism was read and recorded throw the microscope.

As for `CCNc1cc(F)cc2c1[nH]c1ncc(-c3cnc(NC4CCNCC4)nc3)c(-n3ccc(C(F)(F)F)n3)c12` [Example 1.10, N-Ethyl-6-fluoro-3-[2-(4-piperidylamino)pyrimidin-5-yl]-4-[3-(trifluoromethyl)pyrazol-1-yl]-9H-pyrido[2,3-b]indol-8-amine], in series [1], the thermodynamic solubility came out at 7.6 µg/mL (≈ 14.1 µM).
`CNc1cc(F)cc2c1[nH]c1ncc(-c3cnc(C4(C(=O)O)CC4)nc3)c(-n3ccc(C(F)(F)F)n3)c12` [Example 2.02, 1-[5-[6-Fluoro-8-(methylamino)-4-[3-(trifluoromethyl)pyrazol-1-yl]-9H-pyrido[2,3-b]indol-3-yl]pyrimidin-2-yl]cyclopropanecarboxylic acid] gave a CC50 at 3 days in series [2] of 62.6 µM. The solubility (thermodynamic) in series [1] is 148 µg/mL (≈ 289 µM). Moreover, the IC50 came out at 0.254 µM in series [3] and 1.67 µM in series [4].
With `CCNc1cc(F)cc2c1[nH]c1ncc(-c3cnc(OC)nc3)c(-n3nc(C#N)c4c3CNCC4)c12` [Example 1.39, 1-[8-(Ethylamino)-6-fluoro-3-(2-methoxypyrimidin-5-yl)-9H-pyrido[2,3-b]indol-4-yl]-4,5,6,7-tetrahydropyrazolo[3,4-c]pyridine-3-carbonitrile], in series [2], the 50% cytotoxic concentration (CC50) at 3 days stood at 49 µM. This compound returned a solubility (thermodynamic) in series [1] of 42 µg/mL (≈ 86.9 µM). The IC50 is ≤ 0.098 µM in series [3] and 2.37 µM in series [4].
In series [2], `CCNc1cc(F)cc2c1[nH]c1ncc(-c3cnc(C(N)=O)nc3)c(-n3ccc(C(F)(F)F)n3)c12` [Example 3.04, 5-[8-(Ethylamino)-6-fluoro-4-[3-(trifluoromethyl)pyrazol-1-yl]-9H-pyrido[2,3-b]indol-3-yl]pyrimidine-2-carboxamide] registered a CC50 at 3 days of 20.9 µM. The IC50 in series [3] was ≤ 0.098 µM; in series [4] it was 0.204 µM. Also, the MIC in series [5] turned out to be 0.142 µg/mL (≈ 0.293 µM).
In series [2], `CCNc1cc(F)cc2c1[nH]c1ncc(-c3cnc(NC4CCNC4)nc3)c(-n3ccc(C(F)(F)F)n3)c12` (stereo not shown) [Example 1.24, N-Ethyl-6-fluoro-3-[2-(pyrrolidin-3-ylamino)pyrimidin-5-yl]-4-[3-(trifluoromethyl)pyrazol-1-yl]-9H-pyrido[2,3-b]indol-8-amine] yielded a CC50 at 3 days of 11.8 µM. Moreover, the thermodynamic solubility in series [1] is 8.3 µg/mL (≈ 15.8 µM).
`CCNc1cc(F)cc2c1[nH]c1ncc(-c3cnc(OC)nc3)c(-n3nc(C(F)(F)F)c4c3CNC4)c12` [Example 1.35, N-Ethyl-6-fluoro-3-(2-methoxypyrimidin-5-yl)-4-[3-(trifluoromethyl)-5,6-dihydro-4H-pyrrolo[3,4-c]pyrazol-1-yl]-9H-pyrido[2,3-b]indol-8-amine]: in series [2], the CC50 at 3 days worked out at 58 µM. The MIC in series [5] stood at 0.601 µg/mL (≈ 1.17 µM).
In series [1], `CCNc1cc(F)cc2c1[nH]c1ncc(-c3cnc(OC4CCNCC4)nc3)c(-n3ccc(C(F)(F)F)n3)c12` [Example 1.53, N-ethyl-6-fluoro-3-[2-(4-piperidyloxy)pyrimidin-5-yl]-4-[3-(trifluoromethyl)pyrazol-1-yl]-9H-pyrido[2,3-b]indol-8-amine] returned a solubility (thermodynamic) of 21 µg/mL (≈ 38.9 µM). Moreover, the IC50 in series [3] was 0.121 µM; in series [4] it was 1.29 µM.
As to `CCNc1cc(F)cc2c1[nH]c1ncc(-c3cnc(OCC(C)(C)C(=O)O)nc3)c(-n3ccc(C(F)(F)F)n3)c12` [Example 2.03, 3-[5-[8-(Ethylamino)-6-fluoro-4-[3-(trifluoromethyl)pyrazol-1-yl]-9H-pyrido[2,3-b]indol-3-yl]pyrimidin-2-yl]oxy-2,2-dimethyl-propanoic acid], the CC50 at 3 days in series [2] is 20.7 µM. Moreover, in series [5], the MIC is 0.653 µg/mL (≈ 1.17 µM).
Consider `CNc1cc(F)cc2c1[nH]c1ncc(-c3cncc(C#N)c3)c(-n3cc(C#N)cn3)c12` [Example 1.09, 5-[4-(4-Cyanopyrazol-1-yl)-6-fluoro-8-(methylamino)-9H-pyrido[2,3-b]indol-3-yl]pyridine-3-carbonitrile], for which the CC50 at 3 days in series [2] amounted to 14.6 µM. Also, the IC50 in series [3] is ≤ 0.098 µM; in series [4] it was 0.346 µM. For the same compound, in series [5], the MIC was found to be 0.153 µg/mL (≈ 0.375 µM).
For the compound `CCNc1cc(F)cc2c1[nH]c1ncc(-c3cnc(C4(C(=O)O)CC4)nc3)c(-n3ccc(C(F)(F)F)n3)c12` [Example 2.01, 1-[5-[8-(Ethylamino)-6-fluoro-4-[3-(trifluoromethyl)pyrazol-1-yl]-9H-pyrido[2,3-b]indol-3-yl]pyrimidin-2-yl]cyclopropanecarboxylic Acid], the CC50 at 3 days in series [2] amounted to 38.6 µM. The compound also displayed a solubility (thermodynamic) in series [1] of 67 µg/mL (≈ 128 µM).
As for `CCNc1cc(F)cc2c1[nH]c1ncc(-c3cnc(C(C)O)nc3)c(-n3ccc(C(F)(F)F)n3)c12` (stereo not shown) [Example 1.54, 1-[5-[8-(ethylamino)-6-fluoro-4-[3-(trifluoromethyl)pyrazol-1-yl]-9H-pyrido[2,3-b]indol-3-yl]pyrimidin-2-yl]ethanol], half-maximal cytotoxicity in series [2] (CC50 at 3 days) was put at 12.4 µM. In addition, the IC50 amounted to 0.111 µM in series [3] and 1.12 µM in series [4]. The MIC in series [5] turned out to be 0.284 µg/mL (≈ 0.585 µM).
`CCNc1cc(F)cc2c1[nH]c1ncc(-c3cncc(C#N)c3)c(-n3nc(C(F)(F)F)c4c3CNC4)c12` [Example 1.34, 5-[8-(Ethylamino)-6-fluoro-4-[3-(trifluoromethyl)-5,6-dihydro-4H-pyrrolo[3,4-c]pyrazol-1-yl]-9H-pyrido[2,3-b]indol-3-yl]pyridine-3-carbonitrile] showed a CC50 at 3 days in series [2] of 14.1 µM. In addition, the IC50 in series [3] was ≤ 0.098 µM; in series [4], 2 µM. Also, the MIC in series [5] came to 0.727 µg/mL (≈ 1.44 µM).
In the case of `CCNc1cc(F)cc2c1[nH]c1ncc(-c3cncc(CN)c3)c(-n3ccc(C(F)(F)F)n3)c12` [Example 1.45, 3-[5-(Aminomethyl)-3-pyridyl]-N-ethyl-6-fluoro-4-[3-(trifluoromethyl)pyrazol-1-yl]-9H-pyrido[2,3-b]indol-8-amine], in series [1], the solubility (thermodynamic) amounted to 16 µg/mL (≈ 34.1 µM). Moreover, the values for the half-maximal inhibitory concentration (IC50) in series [3] and in series [4] were ≤ 0.098 µM and 2.04 µM, respectively.
`CCNc1cc(F)cc2c1[nH]c1ncc(-c3cncc(C#N)c3)c(-n3cc(CN)c(C(F)(F)F)n3)c12` [Example 1.26, 5-[4-[4-(Aminomethyl)-3-(trifluoromethyl)pyrazol-1-yl]-8-(ethylamino)-6-fluoro-9H-pyrido[2,3-b]indol-3-yl]pyridine-3-carbonitrile] registered a solubility (thermodynamic) in series [1] of 32.5 µg/mL (≈ 65.7 µM). Further, the IC50 in series [3] is ≤ 0.098 µM; in series [4], 0.374 µM. The MIC in series [5] is 0.618 µg/mL (≈ 1.25 µM).
The compound `CCNc1cc(F)cc2c1[nH]c1ncc(-c3cncc(Cc4n[nH]c(=O)o4)c3)c(-n3ccc(C(F)(F)F)n3)c12` [Example 6.01, 5-[[5-[8-(ethylamino)-6-fluoro-4-[3-(trifluoromethyl)pyrazol-1-yl]-9H-pyrido[2,3-b]indol-3-yl]-3-pyridyl]methyl]-3H-1,3,4-oxadiazol-2-one] had a CC50 at 3 days in series [2] of 11.4 µM. Also, the IC50 in series [3] worked out at 0.441 µM; in series [4] it was 0.827 µM. Besides, the MIC in series [5] is 0.731 µg/mL (≈ 1.36 µM).
With `CCNc1cc(F)cc2c1[nH]c1ncc(-c3cnc(NCC(C)(C)C(=O)O)nc3)c(-n3ccc(C(F)(F)F)n3)c12` [Example 2.05, 3-[[5-[8-(Ethylamino)-6-fluoro-4-[3-(trifluoromethyl)pyrazol-1-yl]-9H-pyrido[2,3-b]indol-3-yl]pyrimidin-2-yl]amino]-2,2-dimethyl-propanoic acid], in series [2], it took 27.6 µM to reach half-maximal cytotoxicity (CC50 at 3 days). This compound came in with a solubility (thermodynamic) in series [1] of 24 µg/mL (≈ 43.1 µM).
